Results: article PMC9783881, “Synthesis and Preclinical Evaluation of Small-Molecule Prostate-Specific Membrane Antigen-Targeted Abiraterone Conjugate” (Molecules, 2022)
Like-named read-outs stand apart in the source and are kept apart here.

Experiments:
[1] = test system: human adult dermal fibroblasts (HDFa); experiment: Cytotoxicity on human adult dermal fibroblasts, MTT-test; type: cell-based
Description: Human adult dermal fibroblasts (HDFa). (ATCC) were propagated in DMEM medium (Paneco) supplemented with 10% fetal calf serum (Gibco) and 1% pemicillin/streptomycin in a 5% CO2 atmosphere at 37 °C. Cytotoxicity of PSMA-Abi and AbiAc in fibroblasts were studied using MTT-test. The cells in the exponential growth phase were trypsinized, counted, and seeded at a density of 5000 cells/well in 96-well plate. Cells were incubated with both tested agents at the designated concentrations (0.4–100 μM) for 72 h; then, each well was treated with 20 μL MTT solution in PBS (5 mg/mL) and cells were incubated at least for 3 h, and formazan was dissolved in DMSO. The absorbance was measured at […] and 620 nm using Thermofischer Scientific Multiscan FC. The values for each point were calculated from 6 wells.

22Rv1 cells = experiment: Cell cycle analysis; type: cell-based, human
Description: Cell cycle was analyzed in 22Rv1 cells fixed in 70% ethanol with Muse® cell cycle kit. The fixation lasted overnight at −20 °C. Then, cells were collected by centrifugation at 4000 rpm for 10 min and washed with PBS. The cells were resuspended with Muse® Cell Cycle reagent and incubated for 30 min at room temperature in the dark; then, they were counted.

[2] = test system: 22Rv1 prostate cancer subcutaneous xenograft; experiment: 22Rv1 human tumor xenograft mouse model; type: in vivo, Balb/c nude mice; conditions: 22Rv1 xenografts
Description: Male, 6–8 week old Balb/c nude mice with body weight range of 20–22 g were purchased from N.N.Blokhin Cancer Research Center. Animals were kept in plastic cages equipped with lids with feeding recesses, air filters, and feed dividers at 2–3 mice per cage.
Mice were injected subcutaneously in the right and left flanks with 1 × 10^7 22Rv1 cells in RPMI-1640 medium 0.2 mL supplemented with 0.2 mL Corning Matrigel® matrix (Corning, NY, USA) in a total volume of 400 μL. When the average size of the tumors reached ~100 mm^3, mice were randomly divided into three groups, with five mice per group, including a vehicle group (1% starch paste) and two treatment groups: PSMA-Abi 500 mg/kg/day and AbiAc 200 mg/kg/day for 14 days. The drugs were administered orally, and all compounds were formulated with 1% starch paste. Following the treatment, the primary tumor size was measured twice weekly with a micro-caliper, and the tumor volume was calculated using the formula: Volume = π/6 × length × width × height. Treatment outcome was based on percentage of tumor growth inhibition (%TGI), defined as the percent difference between the median tumor volumes (MTVs) of mice in the treated and control groups. Percent TGI was calculated using the following formula: %TGI = [1 − (MTV treatment group/MTV control)] 100%. All data are presented as means ± SD. Statistical analyses of in vivo research were performed using SPSS Statistics V. 22.0, comparing continuous variables by non-parametrical Mann–Whitney U. * p ≤ 0.05 was considered as significant in comparison with the control.

Pharmacokinetics in rats = type: in vivo
Description: The pharmacokinetic parameters were studied for healthy, outbred, adult, male, albino rats (Wistar) about 3 months old weighing 190–210 g. The experiment included 3 rats for preparation. The formulation of conjugate PSMA-Abi was the same as for the acute toxicity evaluation. Administration dose was 1000 mg/kg.
Blood samples were taken from the tail vein of rats in a volume of 0.2 mL in polyethylene micro-tubes with a capillary up to 0.5 mL by trimming the tip of the tail. K2EDTA was used as an anticoagulant. During the study, a total of 48 blood samples from 3 animals (16 samples from each animal) were selected for PSMA-Abi.
Immediately after taking a blood sample, the tube was carefully inverted several times to mix the contents (anticoagulant). The plasma was then separated by centrifugation at 1500× g for 10 min at a temperature of +4 °C. Centrifugation was performed no later than 15 min after sampling each blood sample. The studied conjugate PSMA-Abi was determined in the blood plasma samples of rats and rabbits by high-performance liquid chromatography (Agilent 1200) with tandem mass spectrometric detection (QTrap 4500 tandem mass spectrometer) with preliminary isolation of the analyte from the biomaterial. Detailed method parameters are described in Table S6.

cytochrome P450 3A4 = biological target: T1, cytochrome P450 3A4 (Homo sapiens, UniProt P08684); experiment: Cytochrome inhibition in human liver microsomes, 3A4; type: in vitro ADME
T1 construct: isoenzyme activity in human liver microsomes using conventional sample substrates and HPLC-MS/MS detection; from tissue; host or cells: human liver microsomes
Source text: (§1) To assess the effect of drugs on liver cytochrome activity in drug development, test systems with recombinant enzymes and fluorescent substrates as well as microsomes with metabolic substrates and HPLC-MS/MS analysis were used. The present study aimed to investigate the effect of targeted delivery drugs specific to malignant prostate cells on cytochrome P450 (CYP450) isoenzyme activity in human liver microsomes using conventional sample substrates and HPLC-MS/MS detection. Detailed methodological parameters are described in the Supplementary Material.

cytochrome P450 2C19 = biological target: T2, cytochrome P450 2C19 (Homo sapiens, UniProt P33261); experiment: Cytochrome inhibition in human liver microsomes, 2C19; type: in vitro ADME; conditions: substrate Mephenytoin, read-out: IC50, 2C19 (PSMA-Abi)
T2 construct: isoenzyme activity in human liver microsomes using conventional sample substrates and HPLC-MS/MS detection; from tissue; host or cells: human liver microsomes
Source text: as §1

cytochrome P450 2D6 = biological target: T3, cytochrome P450 2D6 (Homo sapiens, UniProt P10635); experiment: Cytochrome inhibition in human liver microsomes, 2D6; type: in vitro ADME; conditions: substrate Dextromethorphan, read-out: IC50, 2D6 (PSMA-Abi)
T3 construct: isoenzyme activity in human liver microsomes using conventional sample substrates and HPLC-MS/MS detection; from tissue; host or cells: human liver microsomes
Source text: as §1

[3] = oral x14, PSMA-Abi 500, AbiAc 200 mg/kg/day
[4] = single oral administration, mean
[5] = single peroral 1000 mg/kg, Mean ± SD

T1 sequence (P08684 whole entry): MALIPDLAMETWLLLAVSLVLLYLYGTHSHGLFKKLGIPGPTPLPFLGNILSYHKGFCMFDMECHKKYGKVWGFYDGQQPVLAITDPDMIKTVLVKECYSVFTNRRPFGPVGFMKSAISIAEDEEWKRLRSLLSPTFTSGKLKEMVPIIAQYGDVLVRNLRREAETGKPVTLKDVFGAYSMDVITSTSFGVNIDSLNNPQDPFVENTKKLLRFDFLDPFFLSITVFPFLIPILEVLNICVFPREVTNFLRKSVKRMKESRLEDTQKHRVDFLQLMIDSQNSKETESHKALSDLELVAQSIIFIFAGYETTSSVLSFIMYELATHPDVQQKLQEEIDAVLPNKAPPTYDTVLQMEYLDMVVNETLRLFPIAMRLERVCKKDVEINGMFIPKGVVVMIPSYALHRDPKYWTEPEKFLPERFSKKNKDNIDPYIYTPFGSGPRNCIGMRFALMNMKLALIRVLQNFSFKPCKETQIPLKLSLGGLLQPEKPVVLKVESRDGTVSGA
T2 sequence (P33261 whole entry): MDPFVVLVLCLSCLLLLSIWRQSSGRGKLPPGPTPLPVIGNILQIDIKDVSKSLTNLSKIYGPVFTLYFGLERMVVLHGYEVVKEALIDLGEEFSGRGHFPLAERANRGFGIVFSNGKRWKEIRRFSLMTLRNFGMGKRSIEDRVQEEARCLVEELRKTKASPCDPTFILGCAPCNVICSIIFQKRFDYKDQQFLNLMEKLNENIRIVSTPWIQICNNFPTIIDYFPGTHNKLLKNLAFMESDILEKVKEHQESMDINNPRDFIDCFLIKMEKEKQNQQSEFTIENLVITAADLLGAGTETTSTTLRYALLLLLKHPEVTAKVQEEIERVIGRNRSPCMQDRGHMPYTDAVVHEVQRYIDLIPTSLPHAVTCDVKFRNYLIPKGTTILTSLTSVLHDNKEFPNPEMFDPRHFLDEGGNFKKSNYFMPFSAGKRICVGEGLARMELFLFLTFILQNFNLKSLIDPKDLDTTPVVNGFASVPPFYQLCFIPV
T3 sequence (P10635 whole entry): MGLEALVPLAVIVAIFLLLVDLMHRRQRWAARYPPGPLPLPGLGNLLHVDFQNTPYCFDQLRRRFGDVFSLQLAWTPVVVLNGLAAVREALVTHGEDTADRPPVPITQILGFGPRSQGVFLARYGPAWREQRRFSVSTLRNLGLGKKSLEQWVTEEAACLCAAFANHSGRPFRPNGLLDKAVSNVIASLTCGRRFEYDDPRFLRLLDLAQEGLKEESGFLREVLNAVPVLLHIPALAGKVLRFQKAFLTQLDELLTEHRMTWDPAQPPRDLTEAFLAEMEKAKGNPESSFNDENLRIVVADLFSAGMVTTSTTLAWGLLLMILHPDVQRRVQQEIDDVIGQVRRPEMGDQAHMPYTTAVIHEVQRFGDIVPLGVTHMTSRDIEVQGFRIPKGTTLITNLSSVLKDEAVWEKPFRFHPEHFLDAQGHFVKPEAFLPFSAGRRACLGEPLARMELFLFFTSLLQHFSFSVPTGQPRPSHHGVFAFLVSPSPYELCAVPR

## C[C@]12CC[C@H](OC(=O)CCCc3cn(CCCNC(=O)[C@H](Cc4ccc(O)cc4)NC(=O)[C@H](Cc4ccccc4)NC(=O)CCC(=O)NCCCCCC(=O)N(CCCC[C@H](NC(=O)N[C@@H](CCC(=O)O)C(=O)O)C(=O)O)Cc4cccc(Cl)c4)nn3)CC1=CC[C@@H]1[C@@H]2CC[C@]2(C)C(c3cccnc3)=CC[C@@H]12 [PSMA-Abi]
[1]; HDFa, 72 h, MTT
  CC50: > 100 µM
[1]; tested concentrations 0.4–100 µM
  toxicity for human fibroblasts: inactive
22Rv1 cells; 22Rv1, against a control group
  effect on cell cycle: not statistically significant against a control group
22Rv1 cells; 22Rv1, with increasing concentration
  level of G0/G1 cells: practically unchanged
[2]; oral x14, PSMA-Abi 500 mg/kg/day, AbiAc 200 mg/kg/day, after the end of treatment
  TGImax (tumor growth inhibition): 65%
[2]; [3]
  TGI, day 15 after start of the treatment: 65%
  TGI, day 18 after start of the treatment: 63%
  TGI, day 22 after start of the treatment: 60%
  Tumor volume (M+SE), day 15: 876±197 mm3
  Tumor volume (M+SE), day 18: 1063±195 mm3
  Tumor volume (M+SE), day 22: 1294±201 mm3
[2]; start of treatment
  Tumor volume (M+SE), day 0: 110±18 mm3
Pharmacokinetics in rats; oral 1000 mg/kg
  maximum plasma concentrations, range over animals: 190 to 537 ng/mL
  time plasma concentrations were detected after administration: at least 72 h
  time to maximum plasma concentration, range over animals: 1.5 to 8 h
Pharmacokinetics in rats; [4]
  AUC0–t: 3791 ± 875 ng·h/mL
  AUC0–∞: 4623 ± 1260 ng·h/mL
Pharmacokinetics in rats; single peroral 1000 mg/kg, 1% starch suspension, Mean ± SD
  Cmax: 318 ± 190 ng/mL
Pharmacokinetics in rats; [5]
  AUC0–t: 3791 ± 875 ng·h/mL
  AUC0–∞: 4623 ± 1260 ng·h/mL
  AUCt–∞/AUC0–∞: 21 ± 5%
  Kel: 0.023 ± 0.006 h⁻¹
  MRT0–t: 27.2 ± 1.7 h
  T1/2 (elimination half-life): 31.3 ± 8.7 h
Pharmacokinetics in rats; single peroral 1000 mg/kg, mean
  Tmax: 3.8 h
Cytochrome P450 3A4; substrate Midazolam, read-out: IC50, 3A4-M (PSMA-Abi)
  IC50: 1.1 ± 0.2 µM
Cytochrome P450 3A4; substrate Testosterone, read-out: IC50, 3A4-T (PSMA-Abi)
  IC50: 5.7 ± 0.8 µM
Cytochrome P450 2C19
  IC50: > 25 µM
Cytochrome P450 2D6
  IC50: 17 ± 1 µM
